Assay results published in the METLIN SMRT retention time set (Domingo-Almenara et al. 2019).

Test: gradient 5% acetonitrile 3 min, to 50% in 2 min, to 85% in 15 min, held 3 min, 100 µL/min
Conditions: column: Zorbax Extend-C18 2.1 x 50 mm; eluents: water / acetonitrile, 0.1% formic acid
Procedure, shortened: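 Standards, all pure, were combined into mixtures of ~100 molecules and run at 100 μL/min on a Zorbax Extend-C18 column (2.1 × 50 mm, 1.8 μm) with water and acetonitrile, each containing 0.1% formic acid. A coupled quadrupole time-of-flight mass spectrometer operated in positive and negative ionization mode. Retention time values come from computationally picked adduct peaks, each inspected manually.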

| RP-LC retention time | SMILES |
| --- | --- |
| 1100 s | CSc1cccc(NC(=O)Cn2c(C)nc3c(sc4nc(-c5ccccc5)ccc43)c2=O)c1 |
| 701 s | Cc1cc(=O)n(CC(=O)Nc2cccc(Cl)c2)c(N2CCCCC2)n1 |
| 1210 s | Cc1ccc(Cl)cc1-n1ncc2c(=O)n(Cc3nc(-c4cccc(F)c4)no3)cnc21 |
| 730 s | O=C(Nc1nc(C(=O)N2CCc3ccccc32)co1)c1cccs1 |
| 912 s | CC1CCN(C(=O)c2cn(-c3ccc(-c4nc(C5CC5)no4)cn3)cn2)CC1 |
| 841 s | O=C(CCCS(=O)(=O)Cc1ccccc1)Nc1nc2c(s1)Cc1ccccc1-2 |
| 753 s | Cc1cccc(NC(=O)C2CCN(C(=O)C3Sc4ccccc4NC3=O)CC2)c1C (centres undefined) |
| 894 s | CCCn1c(-c2cccc(C(=O)NCc3cccc(Br)c3)c2)nc2cccnc21 |
| 572 s | Cc1cc(NC(=O)C(=O)NCC(c2cn(C)c3ccccc23)N(C)C)no1 (centres undefined) |
| 646 s | CCc1nnc2ccc(NCC3CCCO3)nn12 (centres undefined) |
| 629 s | Cc1ccc(-c2noc(Cn3ccnc3C)n2)cc1 |
| 765 s | CCOC(=O)c1c(C)c(CCC(=O)N2CCN(c3ncccn3)CC2)n(C)c1C |
| 793 s | CSc1cccc(NC(=O)N2CCC3(CC2)NC(=O)c2ccccc2O3)c1 |
| 956 s | Cc1nccnc1Sc1ccccc1 |
| 702 s | CCNc1nc(C)cc(N2CCN(C(=O)Nc3ccc(CC)cc3)CC2)n1 |
| 1260 s | CCc1ccc(NS(=O)(=O)c2cc(-c3nc(C(C)C)cs3)cs2)cc1 |
| 585 s | Cc1ccccc1CNC(=O)CCC1CCN(c2cc(NC3CC3)ncn2)CC1 |
| 995 s | Cc1ccc(-c2nnc(-c3nc(NCc4ccco4)c4ccccc4n3)o2)cc1 |
| 816 s | COc1ccc(N2CCN(C(=O)C3(c4ccc(NC(=O)C5CC5)cc4)CCC3)CC2)cc1 |
| 638 s | N#Cc1cccc(NC(=O)Cn2nc3n(c2=O)CCCC3)c1 |
| 732 s | Cc1ccccc1NC(=O)N1CCC(CC(=O)N2CCCCC2)CC1 |
| 822 s | O=S(=O)(Cc1ccc(F)cc1)NCCc1csc2nc(-c3cccs3)nn12 |
| 718 s | COc1cccc(S(=O)(=O)NCc2cccnc2-c2cccc(C)c2)c1 |

| RP-LC retention time | SMILES |
| --- | --- |
| 745 s | COC[C@@H]1CN(S(=O)(=O)c2ccccc2F)C[C@H]1c1ccncc1 |
| 943 s | Cc1nn(-c2nc(CC(=O)N(CCO)Cc3ccccc3)cs2)c(C)c1Cl |
| 670 s | COc1ccccc1CC(=O)Nc1ccc2c(c1)CCC(=O)N2 |
| 844 s | COC(=O)c1cc(S(=O)(=O)N2CCCC2C(=O)Nc2ccccc2F)cn1C (centres undefined) |
| 695 s | COc1cc(OC)c(NC(=O)Cn2ncc3c(c2=O)N(C)C(=O)CS3)cc1Cl |
| 745 s | NS(=O)(=O)c1ccc(NC(=O)C2(c3cc(-c4ccco4)on3)CC2)cc1 |
| 1230 s | CCc1ccc(CNC(=O)C2CCCN(c3nc4c(s3)c(C)nn4-c3ccccc3)C2)cc1 (centres undefined) |
| 982 s | Cc1ccc(NC(=O)c2cccc([N+](=O)[O-])c2O)c([N+](=O)[O-])c1 |
| 572 s | COc1ccc(C(=O)N2C[C@@H](Oc3cccnc3)C[C@H]2C(N)=O)c(OC)n1 |
| 783 s | CCOC(=O)CNC(=O)NC(C(=O)N1CCc2ccccc21)C(C)C (centres undefined) |
| 788 s | Cn1nnc2cc(-c3noc(C4CC(=O)N(c5ccccc5)C4)n3)ccc21 (centres undefined) |
| 558 s | CC1CCN(C(=O)C2CCN(c3cncnc3N3CCN(C)CC3)CC2)CC1 |
| 521 s | Cc1nn(C)c(C)c1CCCN(C)C(=O)CCc1ccnc(N2CCOCC2)c1 |
| 1110 s | Cc1ccc(-n2c(-c3ccc(Cl)cc3)cn3c4c(=O)n(C)c(=O)n(C)c4nc23)c(C)c1 |
| 1150 s | O=C(Nc1nc(-c2ccccc2)cs1)c1ccc(S(=O)(=O)N2CCCCC2)cc1 |
| 668 s | O=C(NC1CCN(c2cc(-c3ccc(F)cc3)[nH]n2)C1)c1ccccc1Br (centres undefined) |
| 901 s | Cc1noc(/C=C/c2ccc(S(=O)(=O)N3CCCCC3)s2)c1NC(=O)C1CC1 |
| 1060 s | CCc1ccccc1NC(=O)CSc1nccc(N2CCN(c3cc(C)ccc3C)CC2)n1 |
| 787 s | O=C(c1ccc2c(c1)CCCN2S(=O)(=O)c1ccccc1)N1CCOCC1 |
| 715 s | O=C(NCCN1CCCCCC1)C1CCCN(c2ncc(-c3cccc(F)c3)cn2)C1 (centres undefined) |
| 856 s | COc1ccc(N2CC(c3noc(-c4ccc(F)cc4)n3)CC2=O)cc1OC (centres undefined) |
| 700 s | CCN(CC)CCNC(=O)c1c(C)[nH]c(/C=C2\C(=O)Nc3ccc(F)cc32)c1C |
| 650 s | CCC(C)NC(=O)N1CCN(c2cc(-c3cccc(F)c3)ncn2)CC1 (centres undefined) |

| RP-LC retention time | SMILES |
| --- | --- |
| 920 s | Cc1cc([N+](=O)[O-])ccc1NC(=O)C1COc2ccccc2O1 (centres undefined) |
| 794 s | COc1cc(OC)cc(C(=O)N2CCN(c3cc(-c4cccs4)[nH]n3)CC2)c1 |
| 1020 s | COC1C(=O)N(c2cccc(F)c2)C12CCN(S(=O)(=O)Cc1ccccc1)CC2 (centres undefined) |
| 578 s | CN1CCN(c2cc(C(=O)O)c3cc(NC(=O)C(C)(C)C)ccc3n2)CC1 |
| 854 s | CCCCC(=O)Nc1nnc(SCc2nnc(-c3ccccc3)o2)s1 |
| 1130 s | CCOc1ccc(-c2noc(Cn3nc(-c4ccc5c(c4)OCO5)ccc3=O)n2)cc1 |
| 765 s | CCCn1nc(CNC(=O)c2cnccn2)c2ccccc21 |
| 798 s | O=S(=O)(c1cccnc1)N1CC(n2cc(COc3ccc(F)cc3)nn2)C1 |
| 958 s | CCOC(=O)C1CCN(C(=O)C2COC3(CCCCC3)N2C(=O)c2cccc(Cl)c2)CC1 (centres undefined) |
| 760 s | CCOC1CCN(C(=O)c2ccc(F)cc2)CC1 |
| 1030 s | CCN1c2ccc(F)cc2C(=O)NC12CCN(C(=O)c1cc(F)cc(F)c1)CC2 |
| 1150 s | Cn1cc(-c2nc(C(=O)Nc3cc(F)ccc3F)cs2)c2cccnc21 |
| 909 s | COCCCNC(=O)CCc1cn(Cc2ccccc2F)c2ccccc12 |
| 644 s | C=CCNC(=O)c1cc(C)nc2c(C)cc(C)cc12 |
| 941 s | CCOc1ccc(-c2ccc(SCC)nn2)cc1 |
| 745 s | CN(Cc1ccco1)C(=O)C1CCCN(c2nc3cccnc3s2)C1 (centres undefined) |
| 819 s | O=C1CC(C(=O)N2CCN(c3ccccc3)CC2)CN1CCc1c[nH]c2ccc(F)cc12 (centres undefined) |
| 1080 s | CCc1nc2cc(-c3noc(-c4ccc(OC)c(OC)c4)n3)ccc2o1 |
| 772 s | CCn1nccc1C(=O)N1CCCC1c1ccc(OC)cc1 (centres undefined) |
| 742 s | COc1cc(OC)cc(C(=O)N2CCC3(CC2)NC(=O)c2ccc(Cl)cc2N3)c1 |
| 882 s | O=C(NCCc1csc(-c2cccs2)n1)C1CCN(S(=O)(=O)c2ccc(F)cc2)CC1 |
| 946 s | COc1ccc(CNC(=O)C2(C)CCCN(S(=O)(=O)c3ccc(C)cc3)C2)cc1 (centres undefined) |
| 749 s | C=CCNC(=O)c1snc(C(=O)NC(C)C)c1N |

| RP-LC retention time | SMILES |
| --- | --- |
| 714 s | O=C(Cn1nc2nc(N3CCCC3)ccn2c1=O)Nc1ccc(Cl)cc1 |
| 861 s | COc1ccc(NC(=O)C2CCCCC2)c2ccccc12 |
| 627 s | Cn1cnc(S(=O)(=O)N2CCC(c3noc(-c4cccnc4)n3)C2)c1 (centres undefined) |
| 1010 s | Cc1ccc(C)c(Sc2ccc(N3CCC(C(=O)NCCC4=CCCCC4)CC3)nn2)c1 |
| 678 s | Cc1ccc(C)c(S(=O)(=O)Nc2ccc(-c3cn4ccc(C)nc4n3)cc2)c1 |
| 1120 s | Cc1ccc(C(=O)COc2ccc(N3C(=O)C4CCC(C)CC4C3=O)cc2)cc1C (centres undefined) |
| 784 s | CCOC(=O)Cc1ccc(NC(=O)NC2CCN(c3ccc(C)cc3)C2=O)cc1 (centres undefined) |
| 861 s | COc1ccc(N2CC(c3noc(-c4ccc(OC)cc4OC)n3)CC2=O)cc1 (centres undefined) |
| 865 s | CN(C)c1cccc(C(=O)NC2CCN(c3cc(-c4ccc(Cl)cc4)[nH]n3)C2)c1 (centres undefined) |
| 866 s | COC(=O)c1ccc(NS(=O)(=O)c2ccc(-c3c(C)noc3C)cc2)cc1 |
| 753 s | CCOC(=O)c1ccc(NC(=O)Cn2cnc3nc(N4CCCC4)ncc3c2=O)cc1 |
| 895 s | O=C(Cn1c(=O)c(S(=O)(=O)c2ccccc2)cc2ccccc21)NCc1ccccc1Cl |
| 929 s | O=C(C1=NN(Cc2ccccc2)c2ccccc2S1(=O)=O)N1CCCCC1 |
| 586 s | Cc1nc2cc(N3CCCC(C(=O)NCc4ccc(N(C)C)cc4)C3)cnc2nc1C (centres undefined) |
| 662 s | COC(=O)C[C@](O)(CCCC(C)(C)O)C(=O)O[C@@H]1C(OC)=C[C@]23CCCN2CCc2cc4c(cc2[C@H]13)OCO4 |
| 647 s | O=C(NCCCN1CCCC1=O)c1ccc2ccnc(N3CCN(c4ccc(F)cc4)CC3)c2c1 |
| 754 s | Cn1cc(C2=CCN(C(=O)NC3CCCC3)CC2)c2cccnc21 |
| 593 s | CCOCCCNC(=O)C1CCN(c2nnc3cccc(C)n23)CC1 |
| 1210 s | O=c1c2cc(-c3ccc(F)cc3)nn2cnn1Cc1nc(-c2ccc(Br)cc2)no1 |
| 906 s | COc1cc(OC)cc(N2C=C(C#N)S(=O)(=O)c3c(F)cccc32)c1 |
